For the test, the system named is human chromosome. As to the kind of experiment: In-situ hybridization of a human chromosome: fluorescence-generating substrate reacted with probe-bonded peroxidase and hydrogen peroxide, observed by fluorescence microscope. Set-up: key to Intensity of Fluorescence / Binding: +++: Very strong.; ++: Strong.; +: Weak.; ±: Very weak.; -: Not detected. Particulars: for Binding: binding of the substrate to the chromosome, same reaction conditions; for Intensity of Fluorescence: human chromosome sample from peripheral blood lymphocytes, substrate in 0.01% hydrogen peroxide, room temperature 30 minutes, fluorescence microscope; for fluorescent signals observed: summary of Table 1. From the text:
A human chromosome sample was hybridized with a digoxigenin-labeled, full-length human DNA probe, to which was bonded a peroxidase-labeled anti-digoxigenin antibody. This was reacted with any of fluorescence-generating substrates of the invention (Compounds 1 to 11) or with a comparative substrate of a commercially available, water-soluble fluorescent substrate, 3-(4-hydroxyphenyl)propionic acid (HPPA). […] The full-length human DNA probe hybridizes entirely with the human chromosome. Therefore, if the fluorescence-generating substrates tested herein are reacted in a reaction system comprising peroxidase and hydrogen peroxide, the entire chromosome in the system shall be seen to emit fluorescence in the fluorescence-microscopic observation.
The procedure is as follows:
Human chromosome samples were prepared from cultured human peripheral blood lymphocytes. Full-length human DNA was labeled with digoxigenin through nick translation, collected through ethanol precipitation, and dissolved in formamide to prepare a digoxigenin-labeled, full-length human DNA probe. Each human chromosome sample was immersed in a denaturing solution kept heated at 70° C., for 2 minutes, and then rapidly cooled by putting it into 70% ethanol cooled to 4° C., whereby the double-stranded DNA of the sample was kept dissociated in a single-stranded condition. The probe was kept in a water bath at 75° C. for 10 minutes, and then rapidly cooled in ice water with 5 minutes, whereby the double-stranded DNA of the probe was kept dissociated in a single-stranded condition. This probe was mixed with a hybridization solution, put on the human chromosome sample, and reacted with it overnight at 37° C. (in-situ hybridization).
After having been hybridized, the system was washed with a solution of 50% formamide/2×SSC at 37° C. for 15 minutes, then with 2×SSC at room temperature for 15 minutes, and then with 4×SSC at room temperature for 5 minutes, thereby removing the excess, non-hybridized probe therefrom. Next, a pcroxidase-labeled anti-digoxigenin antibody was diluted with a 1% blocking solution into a 1/100 dilution, and the resulting enzyme-labeled antibody dilution was put on the sample, and maintained at 37° C. for 1 hour. The excess enzyme antibody not bonded to the probe was removed by washing the system with a washing solution containing a surfactant. Any of the fluorescence-generating substrates (Compounds 1 to 11) of the invention and a commercially-available, water-soluble fluorescent substrate, HPPA was dissolved in a reactant solution containing 0.01% hydrogen peroxide […], and the resulting fluorescent substrate solution was put on the sample and reacted with it at room temperature for 30 minutes. After reacting in the reaction system comprising the probe-bonded peroxidase and hydrogen peroxide, the fluorescence-generating substrate formed a new compound which was fixed on the chromosome and emitted fluorescence, which was observed using a fluorescence microscopic.
The full-length human DNA probe hybridizes with the entire chromosome, with the result that the entire chromosome was stained with the fluorescence-generating substrate. Sample were processed with any of the fluorescent substrates (Compounds 1 to 11) as well as the commercially-available, water-soluble fluorescent substrate, […]. […] In addition, the binding of the substrate to the chromosome was checked.

In the case of `Cc1cc(O)ccc1NC(=O)c1ccccc1C` [Compound 9], the Binding entry was “++” and the “Intensity of Fluorescence” value is “++”.

Take `Cc1cc(C)c(C(=O)Nc2ccc(O)cc2C)c(C)c1` [Compound 10, 4-hydroxy-2-methylphenyl-2,4,6-trimethylbenzamide]: the Binding result was “++” and the “Intensity of Fluorescence” value is listed as “++”.

On to `O=C(O)CCCCCNC(=O)CCc1ccc(O)cc1` [Compound 11, 6-{3-(4-hydroxyphenyl)propionamido}hexanoic acid], for which the Binding entry is “+++”, the “Intensity of Fluorescence” value is “+++” and the “fluorescent signals observed” value is “high-intensity fluorescent signals were observed”.

`O=C(O)CCc1ccc(O)cc1` [HPPA, 3-(4-hydroxyphenyl)propionic acid, reference compound]: the Binding result was “+”, the “Intensity of Fluorescence” value is recorded as “±” and the “fluorescent signals observed” value is recorded as “few fluorescent signals were detected”. Further, the “binding of the enzymatic reaction product to the chromosome” value (product after the enzymatic reaction) is given as “soluble in water or could not bind to the chromosome”.

Source of the values: patent US6180844A, “Composition containing fluorescence-generating substrate” (Aisin Seiki Kabushiki Kaisha, priority 1998, dated 2001).
